This assay addresses human σ1 receptor (Homo sapiens, UniProt Q99720). Put plainly: Human σ1 receptor radioligand assay ([3H](+)-pentazocine, transfected HEK-293 membranes). The format is binding. The arrangement: μ and σ1 dual binding: key to the marks not given beside the values. As to conditions: one class symbol for both Ki-σ1 (human σ1 receptor, A1) and Ki-μ (human μ-opioid receptor, A2). As for the experimental part:
Human σ1 Receptor Radioligand Assay
To investigate binding properties of test compounds to human σ1 receptor, transfected HEK-293 membranes and [^3H](+)-pentazocine (Perkin Elmer, NET-1056), as the radioligand, were used. The assay was carried out with 7 μg of membrane suspension, 5 nM of [^3H](+)-pentazocine in either absence or presence of either buffer or 10 μM Haloperidol for total and non-specific binding, respectively. Binding buffer contained Tris-HCl 50 mM at pH 8. Plates were incubated at 37° C. for 120 minutes. After the incubation period, the reaction mix was then transferred to MultiScreen HTS, FC plates (Millipore), filtered and plates were washed 3 times with ice-cold 10 mM Tris-HCL (pH7.4). Filters were dried and counted at approximately 40% efficiency in a MicroBeta scintillation counter (Perkin-Elmer) using EcoScint liquid scintillation cocktail

Setting [1] is: read-out: μ and σ1 dual binding.

Where two headings read alike, the source gives them in different places.

Consider 35 molecules from US10807970B2 (priority 2016, dated 2020).

Chain of human σ1 receptor (Q99720 whole entry): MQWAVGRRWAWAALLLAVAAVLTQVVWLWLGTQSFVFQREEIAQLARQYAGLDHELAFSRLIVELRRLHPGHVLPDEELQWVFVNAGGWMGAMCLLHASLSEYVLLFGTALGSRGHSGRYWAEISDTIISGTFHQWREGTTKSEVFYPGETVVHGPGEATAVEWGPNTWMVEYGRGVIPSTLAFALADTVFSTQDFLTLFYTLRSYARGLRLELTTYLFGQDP

Take `CC(C)OCCN1CCC([C@@]2(C(=O)c3ccccn3)CCOC(C)(C)C2)CC1` [Example 245, (R)-(4-(1-(2-isopropoxyethyl)piperidin-4-yl)-2,2-dimethyltetrahydro-2H-pyran-4-yl)(pyridin-2-yl)methanone]: the “μ and σ1 dual binding” value is reported as “++”.
Take `c1ccc(C2(N3CCN(Cc4ccccn4)CC3)CCOC3(CCCC3)C2)cc1` (centres unmarked) [Example 120, 1-(9-phenyl-6-oxaspiro[4.5]decan-9-yl)-4-(pyridin-2-ylmethyl)piperazine]: the “μ and σ1 dual binding” value is reported as “++”.
Turning to `c1ccc(CN2CCC(C3(c4ccccn4)CCOCC3)CC2)cc1` [Example 124, 2-(4-(1-benzylpiperidin-4-yl)tetrahydro-2H-pyran-4-yl)pyridine], the “μ and σ1 dual binding” value was “++”.
As for `CC(C)CCN1CCN([C@@]2(C(=O)c3ccccn3)CCOC(C)(C)C2)CC1` [Example 132, (S)-(4-(4-isopentylpiperazin-1-yl)-2,2-dimethyltetrahydro-2H-pyran-4-yl)(pyridin-2-yl)methanone], the Ki (μ and σ1 dual binding) is < 500 nM.
As to `C[C@@H]1C[C@](C(=O)c2ccccn2)(N2CCN(Cc3ccccc3)CC2)CCO1` [Example 154, ((2R,4R)-4-(4-benzylpiperazin-1-yl)-2-methyltetrahydro-2H-pyran-4-yl)(pyridin-2-yl)methanone], the Ki under setting [1] was < 500 nM.
`CC(C)OCCN1CCN(C2(C(=O)c3ccccn3)CCOC2)CC1` (centres unmarked) [Example 74, (3-(4-(2-isopropoxyethyl)piperazin-1-yl)tetrahydrofuran-3-yl)(pyridin-2-yl)methanone]: the “μ and σ1 dual binding” value was “++”.
As to `C[C@H]1C[C@@](C(=O)c2ccccn2)(N2CCN(CCc3ccccc3)CC2)CCO1` [Example 241, ((2S,4S)-2-methyl-4-(4-phenethylpiperazin-1-yl)tetrahydro-2H-pyran-4-yl)(pyridin-2-yl)methanone], the Ki under setting [1] was < 500 nM.
Take `CC(C)OCCN1CCC([C@@]2(C(=O)c3ccccn3)CCO[C@@H](C)C2)CC1` [Example 248, ((2S,4R)-4-(1-(2-isopropoxyethyl)piperidin-4-yl)-2-methyltetrahydro-2H-pyran-4-yl)(pyridin-2-yl)methanone]: the Ki (μ and σ1 dual binding) is < 500 nM.
For the molecule `CCC1(C2CCN(Cc3ccccc3)CC2)CCOCC1` [Example 166, 1-benzyl-4-(4-ethyltetrahydro-2H-pyran-4-yl)piperidine], the Ki under setting [1] is > 500 nM.
Turning to `CC1(C)CC(C(=O)c2ccccn2)(C2CCN(Cc3cccc(F)c3)CC2)CCO1` (centres unmarked) [Example 108, (4-(1-(3-fluorobenzyl)piperidin-4-yl)-2,2-dimethyltetrahydro-2H-pyran-4-yl)(pyridin-2-yl)methanone], the Ki (μ and σ1 dual binding) is < 500 nM.
On to `O=C(c1ccccn1)C1(N2CCN(Cc3ccc(OC(F)(F)F)cc3)CC2)CCOCC1` [Example 194, pyridin-2-yl(4-(4-(4-(trifluoromethoxy)benzyl)piperazin-1-yl)tetrahydro-2H-pyran-4-yl)methanone], for which the Ki under setting [1] is > 500 nM.
Turning to `CC(C)OCCN(C)[C@@H]1CCN([C@@]2(C(=O)c3ccccn3)CCOC(C)(C)C2)C1` [Example 145, ((S)-4-((R)-3-((2-isopropoxyethyl)(methyl)amino)pyrrolidin-1-yl)-2,2-dimethyltetrahydro-2H-pyran-4-yl)(pyridin-2-yl)methanone], the Ki under setting [1] is > 500 nM.
For `CC(C)CCN1CCN(C2(C(=O)c3ccccn3)CCOCC2)CC1` [Example 177, (4-(4-isopentylpiperazin-1-yl)tetrahydro-2H-pyran-4-yl)(pyridin-2-yl)methanone], the “μ and σ1 dual binding” value is listed as “++”.
As for `CC[C@@]1(N2CCN(CCOC(C)C)CC2)CCO[C@@H](C)C1` [Example 158, 1-((2S,4R)-4-ethyl-2-methyltetrahydro-2H-pyran-4-yl)-4-(2-isopropoxyethyl)piperazine], the “μ and σ1 dual binding” value was “++”.
For `CC(C)CCN1CCN([C@]2(C(=O)c3ccccn3)CCO[C@@H](C)C2)CC1` [Example 98], under setting [1], the Ki was < 500 nM.
With `CC1(N2CCN(Cc3ccc(F)cc3)CC2)CCOCC1` [Example 182, 1-(4-fluorobenzyl)-4-(4-methyltetrahydro-2H-pyran-4-yl)piperazine], the “μ and σ1 dual binding” value is given as “++”.
Consider `CCC1(N2CCN(CCc3cccnc3)CC2)CCOC(C)(C)C1` (centres unmarked) [Example 83, 1-(4-ethyl-2,2-dimethyltetrahydro-2H-pyran-4-yl)-4-(2-(pyridin-3-yl)ethyl)piperazine], for which the “μ and σ1 dual binding” value is listed as “++”.
The same measure, in the same setting: the value for `CC1(C)CC(C2CCN(Cc3ccccc3)CC2)(C(O)c2ccccn2)CCO1` (centres unmarked) [Example 131, (4-(1-benzylpiperidin-4-yl)-2,2-dimethyltetrahydro-2H-pyran-4-yl)(pyridin-2-yl)methanol] was “++”; that for `CCC1(N2CCN(CCc3ccccn3)CC2)CCOC(C)(C)C1` (centres unmarked) [Example 87, 1-(4-ethyl-2,2-dimethyltetrahydro-2H-pyran-4-yl)-4-(2-(pyridin-2-yl)ethyl)piperazine] was “++”.
Same read-out and setting: the value for `CC(C)OCCN1CCN(C2(C(=O)c3ccccc3)CCOC(C)(C)C2)CC1` (centres unmarked) [Example 13, (4-(4-(2-isopropoxyethyl)piperazin-1-yl)-2,2-dimethyltetrahydro-2H-pyran-4-yl)(phenyl)methanone] was “++”.
In the case of `CC(C)CCN(C)[C@H]1CCN([C@@]2(C(=O)c3ccccn3)CCOC(C)(C)C2)C1` [Example 151, ((S)-4-((S)-3-(isopentyl(methyl)amino)pyrrolidin-1-yl)-2,2-dimethyltetrahydro-2H-pyran-4-yl)(pyridin-2-yl)methanone], the Ki (μ and σ1 dual binding) is < 500 nM.
`CC(C)OCCN1CC2CN(C3(C(=O)c4ccccn4)CCOC(C)(C)C3)CC2C1` (centres unmarked) [Example 73, (4-(5-(2-isopropoxyethyl)hexahydropyrrolo[3,4-c]pyrrol-2(1H)-yl)-2,2-dimethyltetrahydro-2H-pyran-4-yl)(pyridin-2-yl)methanone]: the “μ and σ1 dual binding” value is listed as “++”.
Turning to `CC(C)(F)CCN1CCN(C2(C(=O)c3ccccn3)CCOC(C)(C)C2)CC1` (centres unmarked) [Example 117, (4-(4-(3-fluoro-3-methylbutyl)piperazin-1-yl)-2,2-dimethyltetrahydro-2H-pyran-4-yl)(pyridin-2-yl)methanone], the Ki (μ and σ1 dual binding) was < 500 nM.
On the same count and under the same terms, the value for `CC(C)CCN1CCC([C@@]2(C(=O)c3ccccn3)CCOC(C)(C)C2)CC1` [Example 115, (R)-(4-(1-isopentylpiperidin-4-yl)-2,2-dimethyltetrahydro-2H-pyran-4-yl)(pyridin-2-yl)methanone] was < 500 nM.
With `CC1(C)CC(C(=O)c2ccccn2)(C2CCN(Cc3ccc(F)cc3)CC2)CCO1` (centres unmarked) [Example 109, (4-(1-(4-fluorobenzyl)piperidin-4-yl)-2,2-dimethyltetrahydro-2H-pyran-4-yl)(pyridin-2-yl)methanone], the “μ and σ1 dual binding” value is “++”.
Same read-out and setting: the value for `CC1(C)CC(C(=O)c2cccnc2)(N2CCN(Cc3ccccc3)CC2)CCO1` (centres unmarked) [Example 10, (4-(4-benzylpiperazin-1-yl)-2,2-dimethyltetrahydro-2H-pyran-4-yl)(pyridin-3-yl)methanone] was “++”.
With `CC1(C)CC(C(=O)c2ccccn2)(C2CCN(Cc3ccccc3)CC2)CCO1` (centres unmarked) [Example 22, (4-(1-benzylpiperidin-4-yl)-2,2-dimethyltetrahydro-2H-pyran-4-yl)(pyridin-2-yl)methanone], the Ki (μ and σ1 dual binding) was < 500 nM.
`CC[C@]1(N2CCN(Cc3ccc(C#N)cc3)CC2)CCO[C@H](C)C1` [Example 251, 4-((4-((2R,4S)-4-ethyl-2-methyltetrahydro-2H-pyran-4-yl)piperazin-1-yl)methyl)benzonitrile]: the Ki under setting [1] is > 500 nM.
`CC(C)CN1CCC(C2(C(=O)c3ccccn3)CCOC(C)(C)C2)CC1` (centres unmarked) [Example 102, (4-(1-isobutylpiperidin-4-yl)-2,2-dimethyltetrahydro-2H-pyran-4-yl)(pyridin-2-yl)methanone]: the “μ and σ1 dual binding” value was “++”.
With `CC1(C)C[C@](C(=O)c2ccccn2)(N2CCN(Cc3ccccc3)CC2)CCO1` [Example 3, (R)-(4-(4-benzylpiperazin-1-yl)-2,2-dimethyltetrahydro-2H-pyran-4-yl)(pyridin-2-yl)methanone], under “μ and σ1 dual binding”, the Ki is < 100 nM.
On to `CC1(C)CC(C)(N2CCN(Cc3ccccc3)CC2)CCO1` (centres unmarked) [Example 36, 1-benzyl-4-(2,2,4-trimethyltetrahydro-2H-pyran-4-yl)piperazine], for which the “μ and σ1 dual binding” value was “++”.
For `CC1(C)CC(C(=O)c2ccccn2)(N2CCN(CCc3cccnc3)CC2)CCO1` (centres unmarked) [Example 80, (2,2-dimethyl-4-(4-(2-(pyridin-3-yl)ethyl)piperazin-1-yl)tetrahydro-2H-pyran-4-yl)(pyridin-2-yl)methanone], the Ki under setting [1] is > 500 nM.
`CC(C)(F)COCCN1CCN(C2(C(=O)c3ccccn3)CCOC(C)(C)C2)CC1` (centres unmarked) [Example 116, (4-(4-(2-(2-fluoro-2-methylpropoxy)ethyl)piperazin-1-yl)-2,2-dimethyltetrahydro-2H-pyran-4-yl)(pyridin-2-yl)methanone]: the Ki (μ and σ1 dual binding) is < 500 nM.
Consider `CC1(C)CC(C(=O)c2ccccn2)(N2CCN(Cc3cccnc3)CC2)CCO1` (centres unmarked) [Example 58, (2,2-dimethyl-4-(4-(pyridin-3-ylmethyl)piperazin-1-yl)tetrahydro-2H-pyran-4-yl)(pyridin-2-yl)methanone], for which the Ki under setting [1] was > 500 nM.
As for `CC(C)COCCN1CCN([C@]2(C(=O)c3ccccn3)CCOC(C)(C)C2)CC1` [Example 137, (R)-(4-(4-(2-isobutoxyethyl)piperazin-1-yl)-2,2-dimethyltetrahydro-2H-pyran-4-yl)(pyridin-2-yl)methanone], where the note is “μ and σ1 dual binding”, the Ki was < 500 nM.
